{
  "source": "ChEMBL document CHEMBL1201862",
  "about": "“PubChem BioAssay data set” (2004)",
  "key": {"[1]": {"biological_target": "Cytochrome P450 2C19 (Homo sapiens, UniProt P33261)", "sequence (P33261 whole entry)": "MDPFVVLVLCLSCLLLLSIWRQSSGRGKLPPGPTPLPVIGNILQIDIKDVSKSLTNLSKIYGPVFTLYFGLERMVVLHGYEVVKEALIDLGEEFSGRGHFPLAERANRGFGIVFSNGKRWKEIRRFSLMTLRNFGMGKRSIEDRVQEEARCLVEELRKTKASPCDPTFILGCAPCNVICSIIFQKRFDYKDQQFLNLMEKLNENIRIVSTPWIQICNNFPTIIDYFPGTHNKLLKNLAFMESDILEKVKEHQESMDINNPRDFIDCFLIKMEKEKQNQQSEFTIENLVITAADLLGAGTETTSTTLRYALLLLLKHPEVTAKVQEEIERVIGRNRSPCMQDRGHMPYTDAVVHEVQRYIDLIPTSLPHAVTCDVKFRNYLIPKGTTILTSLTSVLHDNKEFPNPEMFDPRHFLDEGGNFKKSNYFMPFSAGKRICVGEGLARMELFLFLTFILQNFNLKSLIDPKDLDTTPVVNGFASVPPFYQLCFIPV", "assay": "Cytochrome panel assay with activity outcomes. Panel member name: p450-cyp2c19 Compounds with AC50 equal or less than 10 uM are considered active", "assay_type": "functional", "conditions": "read-out: AC50"}, "[2]": {"biological_target": "Cytochrome P450 2C9 (Homo sapiens, UniProt P11712)", "sequence (P11712 whole entry)": "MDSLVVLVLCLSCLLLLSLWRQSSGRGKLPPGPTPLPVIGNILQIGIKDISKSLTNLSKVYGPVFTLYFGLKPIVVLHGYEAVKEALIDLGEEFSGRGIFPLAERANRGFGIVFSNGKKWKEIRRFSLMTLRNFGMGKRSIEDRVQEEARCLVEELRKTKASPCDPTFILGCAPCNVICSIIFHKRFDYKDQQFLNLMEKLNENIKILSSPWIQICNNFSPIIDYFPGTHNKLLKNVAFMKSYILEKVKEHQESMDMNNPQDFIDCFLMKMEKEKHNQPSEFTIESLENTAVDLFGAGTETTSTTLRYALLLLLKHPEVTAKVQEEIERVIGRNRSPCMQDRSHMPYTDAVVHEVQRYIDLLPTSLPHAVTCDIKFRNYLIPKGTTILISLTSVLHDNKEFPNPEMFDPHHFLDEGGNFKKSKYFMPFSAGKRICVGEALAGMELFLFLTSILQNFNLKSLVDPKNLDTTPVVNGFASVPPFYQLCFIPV"}, "[3]": {"biological_target": "Cytochrome P450 3A4 (Homo sapiens, UniProt P08684)", "sequence (P08684 whole entry)": "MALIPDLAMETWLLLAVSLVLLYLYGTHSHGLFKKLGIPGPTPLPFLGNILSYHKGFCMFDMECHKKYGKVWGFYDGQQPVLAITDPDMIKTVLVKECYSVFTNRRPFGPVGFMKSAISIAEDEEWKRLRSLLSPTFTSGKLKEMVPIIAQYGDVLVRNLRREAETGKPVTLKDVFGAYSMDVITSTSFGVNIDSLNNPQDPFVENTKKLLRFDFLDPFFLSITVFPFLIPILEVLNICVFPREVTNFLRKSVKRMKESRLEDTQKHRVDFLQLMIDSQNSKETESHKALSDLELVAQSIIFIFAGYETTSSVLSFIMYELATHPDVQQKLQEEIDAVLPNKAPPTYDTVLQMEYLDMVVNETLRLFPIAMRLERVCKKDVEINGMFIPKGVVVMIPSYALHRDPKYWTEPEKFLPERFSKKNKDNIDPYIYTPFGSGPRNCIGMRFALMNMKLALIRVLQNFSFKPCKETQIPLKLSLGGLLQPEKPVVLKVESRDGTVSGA"}, "[4]": {"assay": "Luminescence Cell-Based Dose Retest to Confirm Inhibitors of Cancer Stem Cells. [Related pubchem assays (depositor defined):AID2717, AID2721]", "assay_type": "functional", "conditions": "Homo sapiens"}, "[5]": {"system": "HEK293", "assay": "cells", "conditions": "Homo sapiens"}, "[6]": {"system": "HEK293", "assay": "cells", "conditions": "Homo sapiens", "remark": "listed apart in the source"}, "[7]": {"assay": "NIH-3T3 fibroblast cytotoxicity, dose response, cytotoxicity control, cell-based, fluorescence, Alamar Blue, secondary assay (AID 2327);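 also: NIH-3T3 mouse fibroblasts cultured with fluconazole at 8 µg/mL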", "assay_type": "functional"}, "[8]": {"assay": "C. albicans growth with fluconazole, confirmation, fluorescence, retest (AID 2467)", "assay_type": "functional, cell-based"}, "[9]": {"system": "CHO", "assay": "cytotoxicity in TLR9-MyD88 CHO cells, dose response, cytotoxicity control for TLR9-MyD88 binding inhibitor project, cell-based, luminescence (AID 588339);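 also: CHO cells stably coexpressing TLR9 and MyD88 fusions from primary screen; compound exposure lasted 48 hours before viability readout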", "assay_type": "functional, hamster", "conditions": "Cricetulus griseus"}, "[10]": {"biological_target": "Beta Lactamase (Pseudomonas aeruginosa, UniProt Q932Y6)", "sequence (Q932Y6 whole entry)": "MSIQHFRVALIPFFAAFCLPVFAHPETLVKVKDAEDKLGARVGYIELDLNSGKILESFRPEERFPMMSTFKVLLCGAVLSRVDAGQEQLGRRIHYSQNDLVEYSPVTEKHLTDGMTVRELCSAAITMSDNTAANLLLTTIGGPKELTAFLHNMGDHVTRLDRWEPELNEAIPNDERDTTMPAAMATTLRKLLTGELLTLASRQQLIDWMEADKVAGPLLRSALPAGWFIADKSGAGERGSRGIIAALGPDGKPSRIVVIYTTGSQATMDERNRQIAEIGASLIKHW", "assay": "beta-lactamase reporter inhibitor potency, dose response, artefact control for TLR9-MyD88 binding inhibitor project, BLA reporter cells, FRET fluorescence (AID 588341);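 also: cell based assay in CHO-K1 cells stably expressing beta-lactamase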", "assay_type": "cell-based"}, "[11]": {"system": "HEK293", "assay": "NOD1 signaling inhibitors, primary screen, cell-based, luminescence, uHTS (AID 1578)", "assay_type": "functional", "conditions": "Homo sapiens"}, "[12]": {"biological_target": "T1, RNA-binding protein pos-1 (Caenorhabditis elegans, UniProt G5EF15)", "T1 sequence (G5EF15 whole entry)": "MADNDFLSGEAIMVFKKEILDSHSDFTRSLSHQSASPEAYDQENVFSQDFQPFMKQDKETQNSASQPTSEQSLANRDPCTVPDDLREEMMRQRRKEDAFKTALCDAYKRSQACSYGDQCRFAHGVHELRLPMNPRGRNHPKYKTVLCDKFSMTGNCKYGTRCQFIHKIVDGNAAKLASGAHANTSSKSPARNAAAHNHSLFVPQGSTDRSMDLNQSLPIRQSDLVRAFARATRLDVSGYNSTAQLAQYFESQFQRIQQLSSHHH", "assay": "inhibitors of POS-1/mex-3 RNA binding, dose response, biochemical, fluorescence polarization (AID 1964);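 also: purified POS-1 fused to maltose binding protein made in E. coli; potency of compounds blocking POS-1 binding to fluorescent RNA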"}, "[13]": {"system": "HEK293", "assay": "cells", "assay_type": "functional, cell-based", "conditions": "Homo sapiens"}, "[14]": {"system": "HEK293", "assay": "cells", "assay_type": "functional, cell-based", "conditions": "Homo sapiens", "remark": "listed apart in the source"}, "[15]": {"biological_target": "Nucleotide-binding oligomerization domain-containing protein 2 (Homo sapiens, UniProt Q9HC29)", "sequence (Q9HC29 whole entry, the tested form may be a part)": "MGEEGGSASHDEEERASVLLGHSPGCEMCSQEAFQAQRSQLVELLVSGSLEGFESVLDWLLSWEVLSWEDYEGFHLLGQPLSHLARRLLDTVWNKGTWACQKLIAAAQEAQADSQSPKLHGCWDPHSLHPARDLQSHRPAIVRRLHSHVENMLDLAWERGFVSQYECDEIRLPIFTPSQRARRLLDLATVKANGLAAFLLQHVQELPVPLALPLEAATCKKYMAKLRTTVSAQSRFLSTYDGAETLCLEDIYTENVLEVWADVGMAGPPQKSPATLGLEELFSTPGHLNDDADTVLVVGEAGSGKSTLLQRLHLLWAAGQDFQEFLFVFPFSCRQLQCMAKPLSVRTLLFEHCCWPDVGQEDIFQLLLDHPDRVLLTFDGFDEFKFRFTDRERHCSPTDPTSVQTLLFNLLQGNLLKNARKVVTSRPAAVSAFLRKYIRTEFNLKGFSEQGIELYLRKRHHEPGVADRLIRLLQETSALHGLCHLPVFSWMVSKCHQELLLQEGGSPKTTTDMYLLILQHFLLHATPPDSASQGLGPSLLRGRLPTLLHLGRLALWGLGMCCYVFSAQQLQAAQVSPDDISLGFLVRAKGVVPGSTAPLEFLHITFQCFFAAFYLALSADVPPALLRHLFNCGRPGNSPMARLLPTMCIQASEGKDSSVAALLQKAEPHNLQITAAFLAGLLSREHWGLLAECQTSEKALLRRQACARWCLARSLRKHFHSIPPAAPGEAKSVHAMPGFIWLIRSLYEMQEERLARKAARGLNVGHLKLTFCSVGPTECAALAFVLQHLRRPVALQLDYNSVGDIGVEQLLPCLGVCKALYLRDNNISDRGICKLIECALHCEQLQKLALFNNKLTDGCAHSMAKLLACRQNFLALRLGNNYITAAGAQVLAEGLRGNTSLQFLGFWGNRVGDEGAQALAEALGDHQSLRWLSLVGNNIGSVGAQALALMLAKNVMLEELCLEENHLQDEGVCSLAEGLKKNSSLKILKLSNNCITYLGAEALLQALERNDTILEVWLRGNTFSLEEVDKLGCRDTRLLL", "assay": "NOD2 signaling inhibitors, cell-based, luminescence, uHTS, HEK293 (AID 1566)", "assay_type": "functional"}, "[16]": {"system": "HEK293", "assay": "NOD2 signaling inhibitors in MDP-stimulated cells, cell-based, uHTS, luminescence (AID 2001)", "assay_type": "functional", "conditions": "Homo sapiens"}, "[17]": {"system": "HEK293", "assay": "cells", "assay_type": "functional, cell-based", "conditions": "Homo sapiens", "remark": "listed apart in the source"}},
  "note": "Calls of active or inactive are those of the source.",
  "data": [
    {"smiles": "O=C(Cc1ccccc1)Nc1nc(=O)c2ccccc2s1", "values": [
      {"measurement": "AC50", "setting": "[1]", "value": "2.82 µM (inconclusive)"},
      {"measurement": "AC50", "setting": "[2]", "value": "3.55 µM (inconclusive)"},
      {"measurement": "AC50", "setting": "[3]", "value": "inconclusive"}
    ]},
    {"smiles": "Cc1ccsc1/C=C/c1ccc2cccc(O)c2n1", "values": [
      {"measurement": "AC50", "setting": "[4]", "value": "6.83 µM (active)"},
      {"measurement": "EC50", "setting": "[5]", "value": "> 59.7 µM (inactive)"},
      {"measurement": "EC50", "setting": "[6]", "value": "> 59.7 µM (inactive)"}
    ]},
    {"smiles": "O=C(c1cccc(F)c1)N1CCC2(CC1)CN(c1ncccn1)C2", "values": [
      {"measurement": "AC50", "setting": "[3]", "value": "inconclusive"}
    ]},
    {"smiles": "COc1ccc(CN2CCC2(C)C(=O)Nc2cccc(NS(C)(=O)=O)c2)c2ccccc12", "note": "(stereo not given)", "values": [
      {"measurement": "EC50", "setting": "[5]", "value": "> 59.7 µM (inactive)"},
      {"measurement": "EC50", "setting": "[6]", "value": "> 59.7 µM (inactive)"}
    ]},
    {"smiles": "C/C(=N\\Nc1ccc([N+](=O)[O-])cc1)c1ccc2c(c1)OCO2", "values": [
      {"measurement": "EC50", "setting": "[7]", "value": "> 150 µM (inactive)"},
      {"measurement": "EC50", "setting": "[8]", "value": "> 38 µM (not active)"},
      {"measurement": "IC50", "setting": "[9]", "value": "> 49.7 µM (inactive)"},
      {"measurement": "IC50", "setting": "[10]", "value": "12.5 µM (inactive)"}
    ]},
    {"smiles": "CCOc1cc(/C=C2\\C(=N)N3N=C(S(C)(=O)=O)SC3=NC2=O)ccc1OCCOc1cccc(OC)c1", "values": [
      {"measurement": "EC50", "setting": "[11]", "value": "> 20 µM (inactive)"},
      {"measurement": "EC50", "setting": "[12]", "value": "> 300 µM (not active)"},
      {"measurement": "IC50", "setting": "[13]", "value": "> 20 µM (inactive)"},
      {"measurement": "IC50", "setting": "[14]", "value": "> 20 µM (inactive)"},
      {"measurement": "EC50", "setting": "[15]", "value": "14.5 µM (active)"},
      {"measurement": "IC50", "setting": "[16]", "value": "> 20 µM (inactive)"},
      {"measurement": "IC50", "setting": "[17]", "value": "> 20 µM (inactive)"}
    ]}
  ]
}
